Broadly, the EC50 is the concentration giving half of the maximal effect.

The source of these data is ChEMBL document CHEMBL5137096, “Antiviral Profiling of C-18- or C-19-Functionalized Semisynthetic Abietane Diterpenoids” (J Nat Prod, 2022).

Calls of active or inactive are those of the source. No cut-off for these calls is given here.

One data set concerns BHK-21. Description: Cytotoxicity against golden hamster BHK-21 cells measured after 6 days by MTT assay. The data set is classed as toxicity, cell-based, Mesocricetus auratus. The note with it: bhk-21, 144 h, time 6 day.
The next data set deals with Vero C1008. Description: Cytotoxicity against African green monkey Vero E6 cells measured after 72 hrs by MTT assay. The format is toxicity, cell-based. The note with it: chlorocebus sabaeus, vero c1008, 72 h. A general note: Formazan colour is commonly taken as a measure of viable cells.
The test system of another data set is Human alphaherpesvirus 1. The format is functional, 29R, Vero E6. The note with it: time 72 hrs.
Data set [1] deals with Zika virus. The format is functional, Vero E6. The note with it: time 72 hrs.
Data set [2] concerns dengue virus type 2. The data set is classed as functional, Vero E6. The note with it: time 72 hrs.
Data set [3] relates to Zika virus. The format is functional, Vero E6. The note with it: time 72 hrs. The source holds these as a separate data set.
The subject of a further data set is Chikungunya virus. The data set is classed as functional, Vero E6. The note with it: time 72 hrs.
The subject of data set [4] is dengue virus type 2. The data set is described as follows: Antiviral activity against DENV2 infected in hamster BHK-21 cells assessed as inhibition of plaque formation by measuring reduction in PFU per well incubated for 6 days by crystal violet staining based assay. The note with it: time 6 day. The format is functional.
The subject of data set [5] is Zika virus. Description: Antiviral activity against ZIKV Col infected in African Green monkey Vero cells assessed as reduction in viral protein production at 3.1 to 25 ug/ml by ELISA relative control. The data set is classed as functional. Further details: scale not given: the % may be the effect or the level left. The note with it: dose 3.1-25 µg/ml; at 3.1 to 25 µg/mL.

Data set [6] has as its system Zika virus. Description: Antiviral activity against ZIKV Col infected in African Green monkey Vero cells assessed as inhibition of viral replication by measuring reduction in viral genomic copies at 12.5 to 25 ug/ml by qRT-PCR analysis. The note with it: dose 12.5-25 µg/ml. The data set is classed as functional, organism-based. On the technique in general: Quantitative PCR measures a nucleic acid by following its amplification.

Data set [7] relates to Zika virus. The data set is described as follows: Antiviral activity against ZIKV IMT17. The format is functional, organism-based.

For `COC(=O)[C@@]1(C)CCC[C@]2(C)c3cc(C(C)=O)c(C(C)C)cc3CC[C@@H]12`, the CC100 with BHK-21 was 50 µg/mL; in the data set with Vero C1008, > 50 µg/mL. For the same molecule, the EC with Human alphaherpesvirus 1, in the data set on Zika virus [1], in the data set with dengue virus type 2 [2], in the data set on Zika virus [3] and in the data set with Chikungunya virus was 25 µg/mL in each case.

Turning to `COC(=O)[C@@]1(C)CCC[C@]2(C)c3cc(O)c(C(C)C)cc3C(=O)C[C@@H]12`, the figures for the CC100 with BHK-21 and with Vero C1008 were 12.5 µg/mL and 25 µg/mL, respectively. The results for the EC in the data set on dengue virus type 2 [2] and in the data set with Chikungunya virus were 12 µg/mL and 12.5 µg/mL, respectively.

Take `Nc1nc2c(ncn2COCCO)c(=O)[nH]1` [ACYCLOVIR]: the EC in the data set on Human alphaherpesvirus 1 came to 1.5 µg/mL.

`CC(C)c1ccc2c(c1O)CC[C@H]1[C@](C)(C(=O)O)CCC[C@]21C`: the CC100 in the data set on BHK-21 and in the data set on Vero C1008 was > 25 µg/mL each time. In addition, the values for the EC with Zika virus [1], in the data set on Zika virus [3] and with Chikungunya virus were 25 µg/mL, 12.5 µg/mL and 25 µg/mL, respectively.

Turning to `COC(=O)[C@]1(C)CCC[C@]2(C)c3cc(O)c(C(C)C)cc3C(=O)C[C@@H]12`, the CC100 is 25 µg/mL in the data set with BHK-21 and 50 µg/mL in the data set on Vero C1008. The EC in the data set with Human alphaherpesvirus 1 and with Chikungunya virus was 25 µg/mL throughout.

As to `CC(C)c1cc2c(cc1O)[C@@]1(C)CCC[C@](C)(C(=O)O)[C@@H]1CC2=O`, the CC100 in the data set with BHK-21 was determined as 12.5 µg/mL; with Vero C1008, 25 µg/mL.

Consider `CC(C)c1cc2c(cc1O)[C@@]1(C)CCC[C@@](C)(CO)[C@@H]1CC2` [18-HYDROXYFERRUGINOL], for which the EC in the data set on dengue virus type 2 [4] turned out to be 3.1 µg/mL; with Human alphaherpesvirus 1, 12.5 µg/mL; with Zika virus [1], 25 µg/mL; in the data set on dengue virus type 2 [2], 25 µg/mL; with Zika virus [3] it was 12.5 µg/mL; with Chikungunya virus, 12.5 µg/mL. The CC100 in the data set on BHK-21 and with Vero C1008 was 50 µg/mL in each case.

As for `CC(C)c1cc2c(cc1O)[C@@]1(C)CCC[C@@](C)(CN3C(=O)c4ccccc4C3=O)[C@@H]1CC2`, the EC in the data set on dengue virus type 2 [4] came to 12.5 µg/mL; in the data set on Human alphaherpesvirus 1, 12.5 µg/mL; with Zika virus [1] it was 6.2 µg/mL; in the data set with dengue virus type 2 [2], 25 µg/mL; in the data set on Zika virus [3], 3.1 µg/mL; in the data set on Chikungunya virus it was 6.2 µg/mL. The CC100 with BHK-21 and in the data set with Vero C1008 was > 50 µg/mL each time. The Activity in the data set with Zika virus [5] is <50%. The inhibition result in the data set with Zika virus [6] is “Active”. The same molecule registered an EC50 in the data set with Zika virus [7] of 7.7 µM.

On to `COC(=O)[C@@]1(C)CCC[C@]2(C)c3cc(OC(C)=O)c(C(C)C)cc3C(=O)C[C@@H]12`, for which the CC100 came out at 25 µg/mL with BHK-21 and 50 µg/mL with Vero C1008. For the same molecule, the EC in the data set with Zika virus [1] and with Chikungunya virus was 25 µg/mL in each case.

For the molecule `COC(=O)[C@@]1(C)CCC[C@]2(C)c3cc(OC(C)=O)c(C(C)C)cc3CC[C@@H]12`, the CC100 with BHK-21 and in the data set with Vero C1008 was 25 µg/mL throughout. The figures for the EC in the data set with Zika virus [1], in the data set with dengue virus type 2 [2] and with Chikungunya virus were 12.5 µg/mL, 12.5 µg/mL and 25 µg/mL, respectively.

For the molecule `NC(=O)c1ncn([C@@H]2O[C@H](CO)[C@@H](O)[C@H]2O)n1` [RIBAVIRIN], the CC100 with BHK-21 and in the data set with Vero C1008 was > 160 µg/mL in each case.

Turning to `COC(=O)[C@]1(C)CCC[C@]2(C)c3cc(O)c(C(C)C)cc3CC[C@@H]12`, the CC100 in the data set with BHK-21 amounted to 25 µg/mL; in the data set with Vero C1008, 50 µg/mL. Moreover, the EC in the data set on Human alphaherpesvirus 1 was determined as 12.5 µg/mL; in the data set on Chikungunya virus, 25 µg/mL.

Consider `CC(C)c1ccc2c(c1)CC[C@H]1C(C)(C(=O)O)CCC[C@]21C` (stereo not given in full), for which the CC100 in the data set with BHK-21 and with Vero C1008 was 50 µg/mL each time. The EC in the data set on Human alphaherpesvirus 1 stood at 25 µg/mL; in the data set on Zika virus [1], 12.5 µg/mL; with dengue virus type 2 [2], 25 µg/mL; with Chikungunya virus, 12.5 µg/mL.

As to `CC(C)c1cc2c(cc1O)[C@@]1(C)CCC[C@@](C)(C(=O)O)[C@@H]1CC2`, the figures for the CC100 in the data set on BHK-21 and with Vero C1008 were 12.5 µg/mL and 25 µg/mL, respectively. The EC in the data set on Human alphaherpesvirus 1 came out at 12.5 µg/mL; in the data set with Chikungunya virus, 25 µg/mL.

Consider `COC(=O)[C@@]1(C)CCC[C@]2(C)c3cc(O)c(C(C)C)cc3CC[C@@H]12`, for which the EC in the data set on dengue virus type 2 [4] worked out at 12.5 µg/mL; in the data set on Zika virus [1], 25 µg/mL; in the data set on dengue virus type 2 [2] it was 25 µg/mL; in the data set on Zika virus [3] it was 12.5 µg/mL; with Chikungunya virus it was 12.5 µg/mL. The results for the CC100 with BHK-21 and in the data set with Vero C1008 were 50 µg/mL and > 50 µg/mL, respectively.

As to `CC(C)c1ccc2c(c1O)CC[C@H]1[C@](C)(CO)CCC[C@]21C`, the CC100 in the data set on BHK-21 and in the data set with Vero C1008 was > 25 µg/mL throughout. The EC with Zika virus [1] and in the data set on Chikungunya virus was 12.5 µg/mL throughout.

As for `CC(C)c1cc2c(cc1O)[C@@]1(C)CCCC(C)(C)[C@@H]1CC2` [FERRUGINOL], the EC amounted to 12.5 µg/mL in the data set on dengue virus type 2 [4], 12.5 µg/mL in the data set on Zika virus [1], 25 µg/mL in the data set with dengue virus type 2 [2] and 25 µg/mL in the data set on Chikungunya virus. Also, the CC100 with BHK-21 and with Vero C1008 was > 50 µg/mL in each case.

For the molecule `COC(=O)[C@]1(C)CCC[C@]2(C)c3ccc(C(C)C)cc3CC[C@@H]12`, the CC100 in the data set with BHK-21 is 50 µg/mL; with Vero C1008, > 50 µg/mL. In addition, the EC in the data set on Human alphaherpesvirus 1 stood at 25 µg/mL; in the data set on Zika virus [1] it was 6.2 µg/mL; in the data set on Zika virus [3], 12.5 µg/mL.

Regarding `CC(C)c1cc2c(cc1O)[C@@]1(C)CCC[C@](C)(CO)[C@@H]1CC2`, the CC100 in the data set with BHK-21 is 12.5 µg/mL; in the data set on Vero C1008 it was 25 µg/mL. Further, the figures for the EC in the data set with Human alphaherpesvirus 1, with Zika virus [1] and in the data set with Chikungunya virus were 12.5 µg/mL, 12.5 µg/mL and 25 µg/mL, respectively.

Turning to `CC(C)c1ccc2c(c1)CC[C@H]1C(C)(CO)CCC[C@]21C` (stereo not given in full), the EC in the data set with dengue virus type 2 [4] came to 12.5 µg/mL; with Zika virus [1], 12.5 µg/mL; in the data set on dengue virus type 2 [2], 25 µg/mL; in the data set on Chikungunya virus it was 25 µg/mL. For the same molecule, the CC100 with BHK-21 and in the data set on Vero C1008 was > 50 µg/mL throughout.

For `COC(=O)[C@]1(C)CCC[C@]2(C)c3cc(OC(C)=O)c(C(C)C)cc3CC[C@@H]12`, the CC100 in the data set with BHK-21 and with Vero C1008 was 50 µg/mL each time. In addition, the EC with Human alphaherpesvirus 1 came to 12.5 µg/mL; in the data set on Zika virus [3], 12.5 µg/mL; in the data set on Chikungunya virus, 25 µg/mL.

For `COC(=O)[C@]1(C)CCC[C@]2(C)c3cc(C(C)=O)c(C(C)C)cc3CC[C@@H]12`, the CC100 is 25 µg/mL in the data set with BHK-21 and > 50 µg/mL with Vero C1008. Also, the EC in the data set on Human alphaherpesvirus 1 came to 12.5 µg/mL; with Chikungunya virus, 25 µg/mL.

Take `CC(C)c1cc2c(cc1O)[C@@]1(C)CCC[C@](C)(C(=O)O)[C@@H]1CC2` [LAMBERTIC ACID]: the CC100 with BHK-21 and in the data set on Vero C1008 was > 50 µg/mL in each case. For the same molecule, the EC in the data set on Human alphaherpesvirus 1, with Zika virus [1], in the data set on dengue virus type 2 [2], in the data set on Zika virus [3] and in the data set with Chikungunya virus was 25 µg/mL throughout.

As for `CC(C)c1cc2c(cc1O)[C@@]1(C)CCC[C@@](C)(CO)[C@@H]1CC2=O`, the figures for the CC100 in the data set with BHK-21 and in the data set with Vero C1008 were 12.5 µg/mL and 25 µg/mL, respectively. For the same molecule, the EC with Human alphaherpesvirus 1 was determined as 12.5 µg/mL; with Zika virus [1], 12.5 µg/mL; in the data set on dengue virus type 2 [2], 12.5 µg/mL; with Chikungunya virus it was 25 µg/mL.

`COC(=O)[C@]1(C)CCC[C@]2(C)c3cc(OC(C)=O)c(C(C)C)cc3C(=O)C[C@@H]12`: the CC100 in the data set on BHK-21 and in the data set with Vero C1008 was 25 µg/mL in each case. Besides, the EC in the data set on Human alphaherpesvirus 1 was found to be 25 µg/mL.

On to `CC(C)c1cc2c(cc1O)[C@@]1(C)CCC[C@](C)(CO)[C@@H]1CC2=O`, for which the CC100 is 25 µg/mL with BHK-21 and > 25 µg/mL with Vero C1008. Moreover, the EC in the data set with Human alphaherpesvirus 1 and in the data set with Chikungunya virus was 25 µg/mL each time.

For `CC(C)c1cc2c(cc1O)[C@@]1(C)CCC[C@@](C)(C(=O)O)[C@@H]1CC2=O`, the results for the CC100 in the data set on BHK-21 and in the data set with Vero C1008 were 50 µg/mL and > 50 µg/mL, respectively. The EC with Human alphaherpesvirus 1 and in the data set on Chikungunya virus was 25 µg/mL each time.

As to `COC(=O)[C@]1(C)CCC[C@]2(C)c3ccc(C(C)C)c(O)c3CC[C@@H]12`, the EC was 3.1 µg/mL with dengue virus type 2 [4]; 12.5 µg/mL in the data set on Human alphaherpesvirus 1; 12.5 µg/mL with Zika virus [1]; 25 µg/mL in the data set on dengue virus type 2 [2]; 12.5 µg/mL in the data set with Chikungunya virus. The CC100 in the data set on BHK-21 and with Vero C1008 was > 25 µg/mL each time.
